Reference: ChEMBL document CHEMBL3885881, “DrugMatrix”

Organism: Rattus norvegicus
Test: DrugMatrix - Regimen: Daily Repeat
Type: toxicity, organism-based, Sprague-Dawley
Design: regimen Daily Repeat, gender Male, age 6-8 weeks
Settings: in vivo, po, route oral GAVAGE, […]; for ABSOLUTE BASOPHIL / ABSOLUTE EOSINOPHIL / ABSOLUTE LYMPHOCYTE / ABSOLUTE MONOCYTE / ABSOLUTE SEGMENTED NEUTROPHIL / BASOPHIL / EOSINOPHIL / ERYTHROCYTE COUNT / HEMATOCRIT / HEMOGLOBIN / LEUKOCYTE COUNT / LYMPHOCYTE / MEAN CORPUSCULAR HEMOGLOBIN / MEAN CORPUSCULAR HEMOGLOBIN CONCENTRATION / MEAN CORPUSCULAR VOLUME / MONOCYTE / NEUTROPHIL / NUCLEATED RED BLOOD CELLS / PLATELET COUNT: tissue Blood; for ALANINE AMINOTRANSFERASE / ALBUMIN / ALKALINE PHOSPHATASE / ASPARTATE AMINOTRANSFERASE / BLOOD UREA NITROGEN / CARBON DIOXIDE / CHLORIDE / CHOLESTEROL / CREATINE PHOSPHOKINASE / CREATININE / GLUCOSE / LACTATE DEHYDROGENASE / LIPASE / PHOSPHORUS / POTASSIUM / SODIUM / TOTAL BILIRUBIN / TOTAL PROTEIN / URIC ACID: tissue Plasma
[1] = 13 mg/kg, 120 h, dose level Low, time 5 day
[2] = 40 mg/kg, 72 h, dose level High, time 3 day
[3] = 40 mg/kg, 120 h, dose level High, time 5 day

Question: What does the source list for `CN(C)c1nc(N(C)C)nc(N(C)C)n1` [ALTRETAMINE]?
Answer: ABSOLUTE BASOPHIL [1]: 0 CELLS/uL; ABSOLUTE EOSINOPHIL [1]: 0 CELLS/uL; ABSOLUTE LYMPHOCYTE [1]: 9932 CELLS/uL; ABSOLUTE MONOCYTE [1]: 0 CELLS/uL; ABSOLUTE SEGMENTED NEUTROPHIL [1]: 334.67 CELLS/uL; BASOPHIL [1]: 0%; EOSINOPHIL [1]: 0%; ERYTHROCYTE COUNT [1]: 5.3 x10E6/uL; HEMATOCRIT [1]: 32.5%; HEMOGLOBIN [1]: 12.67 G/DL; LEUKOCYTE COUNT [1]: 10.27 x10E3/uL; LYMPHOCYTE [1]: 96.33%; MEAN CORPUSCULAR HEMOGLOBIN [1]: 23.93 pg; MEAN CORPUSCULAR HEMOGLOBIN CONCENTRATION [1]: 38.97 G/DL; MEAN CORPUSCULAR VOLUME [1]: 61.4 fL; MONOCYTE [1]: 0%; NEUTROPHIL [1]: 3.67%; NUCLEATED RED BLOOD CELLS [1]: 0 /100WBC; PLATELET COUNT [1]: 759.33 x10E3/uL; ALANINE AMINOTRANSFERASE [1]: 60.67 u/L; ALBUMIN [1]: 4.13 G/DL; ALKALINE PHOSPHATASE [1]: 323.67 u/L; ASPARTATE AMINOTRANSFERASE [1]: 87 u/L; BLOOD UREA NITROGEN [1]: 13.33 mg/dL; CARBON DIOXIDE [1]: 29.67 mmol/L; CHLORIDE [1]: 98 MEQ/L; CHOLESTEROL [1]: 69.67 mg/dL; CREATINE PHOSPHOKINASE [1]: 230.33 u/L; CREATININE [1]: 0.15 mg/dL; GLUCOSE [1]: 150 mg/dL; LACTATE DEHYDROGENASE [1]: 137.67 u/L; LIPASE [1]: 22 u/L; PHOSPHORUS [1]: 10.3 mg/dL; POTASSIUM [1]: 5.84 MEQ/L; SODIUM [1]: 143.3 MEQ/L; TOTAL BILIRUBIN [1]: 0.1 mg/dL; TOTAL PROTEIN [1]: 5.83 G/DL; URIC ACID [1]: 0.87 mg/dL; ABSOLUTE BASOPHIL [2]: 0 CELLS/uL; ABSOLUTE EOSINOPHIL [2]: 41 CELLS/uL; ABSOLUTE LYMPHOCYTE [2]: 13401 CELLS/uL; ABSOLUTE MONOCYTE [2]: 108.67 CELLS/uL; ABSOLUTE SEGMENTED NEUTROPHIL [2]: 749.33 CELLS/uL; BASOPHIL [2]: 0%; EOSINOPHIL [2]: 0.33%; ERYTHROCYTE COUNT [2]: 5.98 x10E6/uL; HEMATOCRIT [2]: 37.43%; HEMOGLOBIN [2]: 14.53 G/DL; LEUKOCYTE COUNT [2]: 14.3 x10E3/uL; LYMPHOCYTE [2]: 93.67%; MEAN CORPUSCULAR HEMOGLOBIN [2]: 24.33 pg; MEAN CORPUSCULAR HEMOGLOBIN CONCENTRATION [2]: 38.83 G/DL; MEAN CORPUSCULAR VOLUME [2]: 62.7 fL; MONOCYTE [2]: 0.67%; NEUTROPHIL [2]: 5.33%; NUCLEATED RED BLOOD CELLS [2]: 0 /100WBC; PLATELET COUNT [2]: 1084 x10E3/uL; ALANINE AMINOTRANSFERASE [2]: 107.67 u/L; ALBUMIN [2]: 4.17 G/DL; ALKALINE PHOSPHATASE [2]: 335.33 u/L; ASPARTATE AMINOTRANSFERASE [2]: 98.67 u/L; BLOOD UREA NITROGEN [2]: 12.33 mg/dL; CARBON DIOXIDE [2]: 26.33 mmol/L; CHLORIDE [2]: 100.67 MEQ/L; CHOLESTEROL [2]: 73 mg/dL; CREATINE PHOSPHOKINASE [2]: 457.67 u/L; CREATININE [2]: 0.17 mg/dL; GLUCOSE [2]: 160.67 mg/dL; LACTATE DEHYDROGENASE [2]: 170.67 u/L; LIPASE [2]: 10.67 u/L; PHOSPHORUS [2]: 10.97 mg/dL; POTASSIUM [2]: 6.05 MEQ/L; SODIUM [2]: 140.73 MEQ/L; TOTAL BILIRUBIN [2]: 0.2 mg/dL; TOTAL PROTEIN [2]: 5.73 G/DL; URIC ACID [2]: 1.97 mg/dL; ABSOLUTE BASOPHIL [3]: 0 CELLS/uL; ABSOLUTE EOSINOPHIL [3]: 0 CELLS/uL; ABSOLUTE LYMPHOCYTE [3]: 8752.67 CELLS/uL; ABSOLUTE MONOCYTE [3]: 0 CELLS/uL; ABSOLUTE SEGMENTED NEUTROPHIL [3]: 580.67 CELLS/uL; BASOPHIL [3]: 0%; EOSINOPHIL [3]: 0%; ERYTHROCYTE COUNT [3]: 5.98 x10E6/uL; HEMATOCRIT [3]: 36.53%; HEMOGLOBIN [3]: 14.1 G/DL; LEUKOCYTE COUNT [3]: 9.33 x10E3/uL; LYMPHOCYTE [3]: 94.33%; MEAN CORPUSCULAR HEMOGLOBIN [3]: 23.67 pg; MEAN CORPUSCULAR HEMOGLOBIN CONCENTRATION [3]: 38.6 G/DL; MEAN CORPUSCULAR VOLUME [3]: 61.23 fL; MONOCYTE [3]: 0%; NEUTROPHIL [3]: 5.67%; NUCLEATED RED BLOOD CELLS [3]: 0 /100WBC; PLATELET COUNT [3]: 779.67 x10E3/uL; ALANINE AMINOTRANSFERASE [3]: 65.33 u/L; ALBUMIN [3]: 4 G/DL; ALKALINE PHOSPHATASE [3]: 406 u/L; ASPARTATE AMINOTRANSFERASE [3]: 87.67 u/L; BLOOD UREA NITROGEN [3]: 12.67 mg/dL; CARBON DIOXIDE [3]: 34 mmol/L; CHLORIDE [3]: 97.67 MEQ/L; CHOLESTEROL [3]: 55.33 mg/dL; CREATINE PHOSPHOKINASE [3]: 274.33 u/L; CREATININE [3]: 0.15 mg/dL; GLUCOSE [3]: 151 mg/dL; LACTATE DEHYDROGENASE [3]: 133.67 u/L; LIPASE [3]: 10 u/L; PHOSPHORUS [3]: 10.63 mg/dL; POTASSIUM [3]: 5.18 MEQ/L; SODIUM [3]: 142.9 MEQ/L; TOTAL BILIRUBIN [3]: 0.17 mg/dL; TOTAL PROTEIN [3]: 5.77 G/DL; URIC ACID [3]: 0.47 mg/dL
